# Data as given in US20220125837A1, “METHODS FOR CONTROLLED ELIMINATION OF THERAPEUTIC CELLS” (Bellicum Pharmaceuticals, Inc., priority 2014, published 2022).
# Like-named read-outs stand apart in the source and are kept apart here. Where a SMILES comes first, the peptide text is derived from it. The star is where a group is joined. Cbz = O=C(OCc1ccccc1)*; CH2F = FC*
# Legend:
# [1] = target: FRB-KTF (Homo sapiens, UniProt P42345+P62942, W2101F); details: cited from earlier work
# [2] = tested on: F-Casp9M.I.GFPhigh-transduced T cells; test: Annexin V/7-AAD staining of iCasp9M GFPhigh T cells after CID; format: cell-based, human; details: 100 μM for 1 hour prior to adding CID
# Experimental: CID (AP20187; ARIAD Pharmaceuticals) at indicated concentrations was added to transfected 293T cells or transduced CTLs. Adherent and nonadherent cells were harvested and washed with annexin binding buffer (BD Pharmingen, San Jose, Calif.). Cells were stained with annexin-V and 7-amino-actinomycin D (7-AAD) for 15 minutes according to the manufacturer's instructions (BD Pharmingen). Within 1 hour after staining, cells were analyzed by flow cytometry using CellQuest software (Becton Dickinson).
# A representative example of 3 separate experiments is shown.
# For clinical applications therefore, versions of the expression constructs with selectable markers that allow selection for high copy number, high levels of expression, or both high copy number and high levels of expression may be desirable. […] The dose response remained unchanged for at least 4 weeks after transduction.
# [3] = target: wt FRB (K2095 T2098 W2101) (Homo sapiens, UniProt P42345+P62942); details: cited from earlier work
# Sequence of wt FRB (K2095 T2098 W2101) (P62942 2-108): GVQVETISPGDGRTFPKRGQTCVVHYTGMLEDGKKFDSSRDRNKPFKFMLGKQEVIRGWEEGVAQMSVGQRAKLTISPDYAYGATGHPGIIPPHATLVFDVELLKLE
# Sequence of wt FRB (K2095 T2098 W2101) (P42345 2012-2144): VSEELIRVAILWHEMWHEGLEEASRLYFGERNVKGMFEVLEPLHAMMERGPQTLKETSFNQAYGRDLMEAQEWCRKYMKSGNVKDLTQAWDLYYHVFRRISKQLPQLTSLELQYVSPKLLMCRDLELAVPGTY
# [4] = target: FRB-PLF (Homo sapiens, UniProt P42345+P62942, K2095P/T2098L/W2101F); details: cited from earlier work
# Sequence of FRB-PLF (P42345 2012-2144 K2095P/T2098L/W2101F): as the sequence (P42345 2012-2144) above, with K84P, T87L, W90F counted along it
# Sequence of FRB-PLF (P62942 2-108): as the sequence (P62942 2-108) above
# [5] = tested on: 293 cells; test: SRα-SEAP assay in 293 cells with FRBl2-tagged CAR and iCaspase-9: rapamycin or rimiducid; format: cell-based, human; details: overnight
# Experimental: Two tandem FRB, domains were fused to either either a 1st generation Her2-CAR or to a 1st generation CD19-CAR co-expressing inducibleiCaspase-9. 293 cells were transiently transfected with a constitutive reporter plasmid, SRα-SEAP, along with normalized levels of expression plasmids encoding Her2-CAR-FRBl2, iCaspase-9, Her2-CAR-FRBl2+iCasp9, iC9-CAR(19).FRBl2 (coexpressing both CD19-CAR-FRBl2 and iCaspase9), or control vector. […] After overnight incubation with drugs, SEAP activity was determined. […] This dose-dependent decrease required the presence of both the FRB-tagged CAR and the FKBP12-tagged Caspase-9. […] Moreover, on- or off-target-mediated CAR clustering should increase the sensitivity of killing primarily at the site of scFv engagement.
# 24 hours following transfection (4.1), 293T cells are split to 96-well plates and incubated with dilutions of dimerizing drugs. Briefly, 100 μL media is added to each well of a 96-well flat-bottom plate. Drugs are diluted in tubes to a concentration 4× the top concentration in the gradient to be place on the plate. […]
# 24 hours after drug stimulation, 96-well plates are wrapped to prevent evaporation and incubated at 65° C. for 2 hours to inactivate endogenous and serum phosphatases while the heat-stable SeAP reporter remains (3, 12, 14). […] Phosphatase activity is measured by fluorescence with excitation at 355 nm and emission at 460 nm. […]
# [6] = cited from earlier work
# [7] = tested on: CD3+ΔCD19+ cells; test: CASPALLO phase I clinical trial: AP1903 in patients with GvHD after iCasp9 T cells; format: in vivo, human
# Experimental: Prior to administration, the calculated dose was diluted to 100 mL in 0.9% normal saline for infusion.
# [8] = tested on: human CD3+CD19+ T cells; test: AP1903 dose-dependent elimination in vivo of iCasp9-transduced T cells; parameters: species or system immune deficient mice (NSG); details: mouse
# Experimental: The Caspase-9 polypeptide has a dose-response curve in vivo, which could be used to eliminate a variable fraction of T cells expressing the Caspase-9 polypeptide.
# T cells were transduced with SFG-iCasp9-D330E-2A-ΔCD19 retrovirus and injected i.v. into immune deficient mice (NSG). […] After an additional 24 hours, mice were sacrificed and lymphocytes from the spleen (A) were isolated and analyzed by flow cytometry for the frequency of human CD3+CD19+ T cells.
# [9] = tested on: cells; test: AP1903 needed in vitro for effective signaling of cells; format: cell-based
# Experimental: This equates to 16-160 μg/L or ˜0.016-1.6 mg/kg (1.6-160 μg/kg).
# [10] = tested on: HEK293T/16 cells; test: Secreted alkaline phosphatase (SEAP) surrogate killing assay of iCasp9 mutants; format: cell-based, human; details: SEAP assay without AP1903; relative to wild type Caspase-9
# Experimental: Early passage HEK293T/16 cells (ATCC, Manassas, Va.) were maintained in IMDM, GlutaMAX™ (Life Technologies, Carlsbad, Calif.) supplemented with 10% FBS, 100 U/mL penicillin, and 100 U/mL streptomycin until transfection in a humidified, 37° C., 5% CO2/95% air atmosphere. Cells in logarithmic-phase growth were transiently transfected with 800 ng to 2 μg of expression plasmid encoding iCasp9 mutants and 500 ng of an expression plasmid encoding SRα promoter driven SEAP per million cells in 15-mL conical tubes. […] GeneJammer® Transfection Reagent at a ratio of 3 μl per ug of plasmid DNA was used to transiently transfect HEK293T/16 cells in the absence of antibiotics. 100 μl or 2 mL of the transfection mixture was added to each well in 96-well or 6-well plate, respectively.
# Briefly, after 65° C. heat denaturation for 45 minutes to reduce background caused by endogenous (and serum-derived) alkaline phosphatases that are sensitive to heat, 5 μl of supernatants was added to 95 μl of PBS and added to 100 μl of substrate buffer, containing 1 μl of 100 mM 4-methylumbelliferyl phosphate (4-MUP; Sigma, St. Louis, Mo.) re-suspended in 2 M diethanolamine. Hydrolysis of 4-MUP by SEAP produces a fluorescent substrate with excitation/emission (355/460 nm), which can be easily measured. […] 1000-ul of the mixture was seeded onto each well of a 96-well plate. […] For the assay, 4-methylumbelliferyl phosphate substrate was hydrolyzed by SEAP to 4-methylumbelliferon, a metabolite that can be excited with 364 nm and detected with an emission filter of 448 nm. Since SEAP is used as a marker for cell viability, reduced SEAP reading corresponds with increased iCaspase-9 activities.
# [11] = tested on: PG13 packaging cells; format: cell-based
# [12] = tested on: primary T cells; test: AP1903-dependent cytotoxicity in primary T cells transduced with caspase variants; format: cell-based, human; details: AP1903 at Day 0 and day 4
# Experimental: The effects of various caspase polypeptides at mostly single copy in primary T cells was assayed. This may reflect more accurately how these suicide genes will be used therapeutically.
# Primary T cells from healthy donors (n=6) were transduced with retrovirus encoding mutant or wild-type iCasp9 or iCasp9-D330A, and the ΔCD19 cell surface marker. Following transduction, iCasp9-transduced T cells were purified using CD19-microbeads and a magnetic column.
# Sequence of FRB-KTF (P42345 2012-2144 W2101F): as the sequence (P42345 2012-2144) above, with W90F counted along it
# Sequence of FRB-KTF (P62942 2-108): as the sequence (P62942 2-108) above
molecule,measurement,setting,value
S-Butanesulfonamidorap,EC50,[1],> 200 nM
COC(=O)C[C@H](NC(=O)[C@H](C)NC(=O)[C@@H](NC(=O)OCc1ccccc1)C(C)C)C(=O)CF [zVAD-fmk] (Cbz-Val-Ala-Asp(OMe)-CH2F),effect on CID-induced apoptosis,[2],inhibited
CO[C@@H]1C[C@H](C[C@@H](C)[C@@H]2CC(=O)[C@H](C)/C=C(\C)[C@@H](O)[C@@H](OC)C(=O)[C@H](C)C[C@H](C)/C=C/C=C/C=C(\C)[C@H](OC(C)C)C[C@@H]3CC[C@@H](C)[C@@](O)(O3)C(=O)C(=O)N3CCCC[C@H]3C(=O)O2)CC[C@H]1O [R-Isopropoxyrapamycin],EC50,[3],~300 nM
same,EC50,[4],~8.5 nM
CO[C@H]1C[C@@H]2CC[C@@H](C)[C@@](O)(O2)C(=O)C(=O)N2CCCC[C@H]2C(=O)O[C@H]([C@H](C)C[C@@H]2CC[C@@H](O)[C@H](OC)C2)CC(=O)[C@H](C)/C=C(\C)[C@@H](O)[C@@H](OC)C(=O)[C@H](C)C[C@H](C)/C=C/C=C/C=C/1C [Rapamycin],maximal decrease of SEAP activity,[5]; FRB-tagged CAR plus FKBP12-tagged Caspase-9,~50%
"CC[C@H](C(=O)N1CCCC[C@H]1C(=O)O[C@H](CCc1ccc(OC)c(OC)c1)c1cccc(OCC(=O)NCCNC(=O)COc2cccc([C@@H](CCc3ccc(OC)c(OC)c3)OC(=O)[C@@H]3CCCCN3C(=O)[C@@H](CC)c3cc(OC)c(OC)c(OC)c3)c2)c1)c1cc(OC)c(OC)c(OC)c1 (relative stereo) [AP1903, 2-Piperidinecarboxylic acid, 1-[(2S)-1-oxo-2-(3,4,5-trimethoxyphenyl)butyl]-, 1,2-ethanediylbis[imino(2-oxo-2,1-ethanediyl)oxy-3,1-phenylene[(1R)-3-(3,4-dimethoxyphenyl)propylidene]] ester, [2S-[1(R*),2R*[S*[S*[1(R*),2R*]]]]]-(9Cl)]","SEAP activity, % of normal levels",[5]; at much lower levels of drug,about 20%
same,plasma level as % of maximal concentration,[6]; 2 hours post-dose,~7%
same,plasma level as % of maximal concentration,[6]; 10 hours post-dose,~1%
same,well-tolerated doses,[6]; Phase I study,up to 1 mg/kg
same,ablation of CD3+ΔCD19+ cells,"[7]; patients with grade I/II aGVHD, 0.4 mg/kg 2 h infusion, within 30 minutes of infusion",> 90%
same,time to resolution of skin and liver aGvHD,[7]; two patients,≤ 24 h
same,further change of CD3+ΔCD19+ cells,[7]; within 24 hours,further log reduction
same,dose sufficient to eliminate most modified T cells in vivo,[8],0.5 mg/kg
same,amount needed in vitro for effective signaling of cells,[9],10 to 100 nM
D330E: chimeric modified Caspase-9 polypeptide (protein) VDGFGDVGALESLRGNADLAYILSMEPCGHCLIINNVNFCRESGLRTRTGSNIDCEKLRRRFSSLHFMVEVKGDLTAKKMVLALLELARQDHGALDCCVVVILSHGCQASHLQFPGAVYGTDGCPVSVEKIVNIFNGTSCPSLGGKPKLFFIQACGGEQKDHGFEVASTSPEDESPGSNPEPDATPFQEGLRTFDQLEAISSLPTPSDIFVSYSTFPGFVSWRDPKSGSWYVETLDDIFEQWAHSEDLQSLLLRVANAVSVKGIYKQMPGCFNFLRKKLFFKTSASRA,"basal activity, in words",[10],less basal activity than wild type Caspase-9
same,"CD19 mean fluorescence intensity of transduced PG13 cells, in words",[11],enhanced CD19 mean fluorescence intensity (MFI)
same,"viral titers, in words","[11]; upon HAT media treatment, HT1080 cells",higher viral titers
F404Y: chimeric modified Caspase-9 polypeptide (protein) VDGFGDVGALESLRGNADLAYILSMEPCGHCLIINNVNFCRESGLRTRTGSNIDCEKLRRRFSSLHFMVEVKGDLTAKKMVLALLELARQDHGALDCCVVVILSHGCQASHLQFPGAVYGTDGCPVSVEKIVNIFNGTSCPSLGGKPKLFFIQACGGEQKDHGFEVASTSPEDESPGSNPEPDATPFQEGLRTFDQLDAISSLPTPSDIFVSYSTFPGFVSWRDPKSGSWYVETLDDIFEQWAHSEDLQSLLLRVANAVSVKGIYKQMPGCYNFLRKKLFFKTSASRA,"killing of target T cells within 10 days, in words",[12],indistinguishable from wild type Caspase-9 polypeptide or D330A
D330S: chimeric modified Caspase-9 polypeptide (protein) VDGFGDVGALESLRGNADLAYILSMEPCGHCLIINNVNFCRESGLRTRTGSNIDCEKLRRRFSSLHFMVEVKGDLTAKKMVLALLELARQDHGALDCCVVVILSHGCQASHLQFPGAVYGTDGCPVSVEKIVNIFNGTSCPSLGGKPKLFFIQACGGEQKDHGFEVASTSPEDESPGSNPEPDATPFQEGLRTFDQLSAISSLPTPSDIFVSYSTFPGFVSWRDPKSGSWYVETLDDIFEQWAHSEDLQSLLLRVANAVSVKGIYKQMPGCFNFLRKKLFFKTSASRA,"basal activity, in words",[10],less basal activity than wild type Caspase-9
D330G: chimeric modified Caspase-9 polypeptide (protein) VDGFGDVGALESLRGNADLAYILSMEPCGHCLIINNVNFCRESGLRTRTGSNIDCEKLRRRFSSLHFMVEVKGDLTAKKMVLALLELARQDHGALDCCVVVILSHGCQASHLQFPGAVYGTDGCPVSVEKIVNIFNGTSCPSLGGKPKLFFIQACGGEQKDHGFEVASTSPEDESPGSNPEPDATPFQEGLRTFDQLGAISSLPTPSDIFVSYSTFPGFVSWRDPKSGSWYVETLDDIFEQWAHSEDLQSLLLRVANAVSVKGIYKQMPGCFNFLRKKLFFKTSASRA,"basal activity, in words",[10],less basal activity than wild type Caspase-9
